Earlier results as cited in patent publication US20070014883A1, “Method for treating osteoarthritis” (priority 2005, published 2007).
Entries after “also recorded” stand apart in the source; their conditions may differ.

Legend:
MMP-2 = target: T1, MMP-2 (Homo sapiens, UniProt P08253); details: for Inhibitory activity against MMP-2, potency relative to captopril: more potent than captopril; for Inhibition of MMP-2: reference 24
T1 sequence (P08253 110-660): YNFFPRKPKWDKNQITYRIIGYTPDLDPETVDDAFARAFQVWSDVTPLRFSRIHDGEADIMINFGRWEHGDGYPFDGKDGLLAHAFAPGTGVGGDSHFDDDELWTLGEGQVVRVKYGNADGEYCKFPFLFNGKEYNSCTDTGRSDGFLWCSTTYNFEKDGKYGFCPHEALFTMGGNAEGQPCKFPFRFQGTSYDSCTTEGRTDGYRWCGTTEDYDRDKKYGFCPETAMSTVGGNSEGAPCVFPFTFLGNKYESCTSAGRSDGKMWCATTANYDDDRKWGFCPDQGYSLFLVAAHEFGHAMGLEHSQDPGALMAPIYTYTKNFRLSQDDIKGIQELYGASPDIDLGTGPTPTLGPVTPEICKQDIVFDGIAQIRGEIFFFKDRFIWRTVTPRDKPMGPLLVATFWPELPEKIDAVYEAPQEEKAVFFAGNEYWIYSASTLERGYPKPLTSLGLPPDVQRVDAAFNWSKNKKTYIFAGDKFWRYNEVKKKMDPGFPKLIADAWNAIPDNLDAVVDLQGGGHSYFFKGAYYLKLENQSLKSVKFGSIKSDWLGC

MMP-9 = MMP-9 (Homo sapiens, UniProt P14780); details: for Inhibitory activity against MMP-9, potency relative to captopril: more potent than captopril; for Inhibition of MMP-9: reference 24
Sequence of MMP-9 (P14780 94-707, species assumed): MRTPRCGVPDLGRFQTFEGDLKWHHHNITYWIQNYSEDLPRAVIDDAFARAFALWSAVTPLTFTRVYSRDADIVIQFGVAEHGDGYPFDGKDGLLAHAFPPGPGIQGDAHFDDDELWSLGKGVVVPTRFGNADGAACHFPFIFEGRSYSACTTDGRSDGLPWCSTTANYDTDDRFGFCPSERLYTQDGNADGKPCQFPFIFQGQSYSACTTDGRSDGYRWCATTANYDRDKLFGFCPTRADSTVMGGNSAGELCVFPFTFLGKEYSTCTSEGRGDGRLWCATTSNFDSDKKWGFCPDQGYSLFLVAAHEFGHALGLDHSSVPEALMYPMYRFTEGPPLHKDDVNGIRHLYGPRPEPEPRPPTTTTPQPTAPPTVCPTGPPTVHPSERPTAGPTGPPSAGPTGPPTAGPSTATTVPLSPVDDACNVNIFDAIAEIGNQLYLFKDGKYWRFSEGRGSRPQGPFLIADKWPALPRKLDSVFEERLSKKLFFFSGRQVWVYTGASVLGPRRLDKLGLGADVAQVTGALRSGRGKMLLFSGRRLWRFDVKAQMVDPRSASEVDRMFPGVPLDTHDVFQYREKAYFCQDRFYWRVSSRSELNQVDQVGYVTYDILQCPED

MMP-1 = target: T2, MMP-1 (Homo sapiens, UniProt P03956); details: reference 24
T2 sequence (P03956 100-469): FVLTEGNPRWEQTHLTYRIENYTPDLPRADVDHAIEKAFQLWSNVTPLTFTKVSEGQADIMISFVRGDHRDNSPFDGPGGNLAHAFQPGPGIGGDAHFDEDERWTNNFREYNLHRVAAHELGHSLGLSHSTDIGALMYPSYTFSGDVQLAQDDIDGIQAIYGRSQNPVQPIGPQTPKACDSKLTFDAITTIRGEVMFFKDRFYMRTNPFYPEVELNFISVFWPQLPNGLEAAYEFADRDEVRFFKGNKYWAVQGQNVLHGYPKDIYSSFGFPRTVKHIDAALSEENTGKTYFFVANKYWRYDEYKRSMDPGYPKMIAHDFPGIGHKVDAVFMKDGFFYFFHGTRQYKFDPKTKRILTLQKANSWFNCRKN

Inhibitory activity against MMP-2, potency relative to captopril (MMP-2) [fold]	Inhibitory activity against MMP-9, potency relative to captopril (MMP-9) [fold]	Structure (SMILES)	Inhibition of MMP-2 (MMP-2)	Inhibition of MMP-9 (MMP-9)	Inhibition of MMP-1 (MMP-1)
100	100	COc1cc(CC2CCC(=O)O2)ccc1O (stereo not shown) [M2, δ-(3-methoxy-4-hydroxyphenyl)-γ-valerolactone]	strong inhibitory activity; also recorded: more potent than the parent molecules	strong inhibitory activity; also recorded: more potent than the parent molecules	strong inhibitory activity; also recorded: more potent than the parent molecules
100	100	O=C1CCC(Cc2ccc(O)c(O)c2)O1 (stereo not shown) [M1, δ-(3,4-dihydroxy-phenyl)-γ-valerolactone]	strong inhibitory activity; also recorded: more potent than the parent molecules	strong inhibitory activity; also recorded: more potent than the parent molecules	strong inhibitory activity; also recorded: more potent than the parent molecules
